Measurements reported in patent US20260226068A1, “IMIDAZOTRIAZINE IL-17A MODULATORS AND USES THEREOF” (DICE ALPHA, INC., priority 2023, published 2026).

What was measured:
IL-17A/F = molecular target: T1, IL-17A/F (Homo sapiens, UniProt Q16552+Q96PD4); assay: IL-17A/F HEK-Blue cell assay (SEAP reporter); format: cell-based; conditions: HEK-Blue IL-17A reporter cells, IL17A/F 5 ng/mL, 20 hours, SEAP read at A630; read-out: HEK-Blue IL17AF (IC50 for IL-17A/F inhibition)
T1 construct: purchased R&D Systems
T1 sequence (Q16552 24-155): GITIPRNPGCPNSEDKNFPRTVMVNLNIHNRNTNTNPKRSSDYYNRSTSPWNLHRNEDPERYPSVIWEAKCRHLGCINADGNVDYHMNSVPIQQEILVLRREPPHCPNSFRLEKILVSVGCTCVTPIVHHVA
T1 sequence (Q96PD4 31-163): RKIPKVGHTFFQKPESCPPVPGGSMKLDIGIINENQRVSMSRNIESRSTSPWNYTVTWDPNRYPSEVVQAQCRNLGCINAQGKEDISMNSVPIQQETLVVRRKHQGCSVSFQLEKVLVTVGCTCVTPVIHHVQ

IL-17A/A = molecular target: T2, IL-17A/A (Homo sapiens, UniProt Q16552); assay: IL-17A/A HEK-Blue cell assay (SEAP reporter); format: cell-based; conditions: HEK-Blue IL-17A reporter cells, IL17A/A 5 ng/mL, 20 hours, SEAP read at A630; read-out: HEK-Blue IL17AA (IC50 for IL-17A/A inhibition)
T2 construct: purchased Genscript Z03228
T2 sequence (Q16552 24-155): T1 sequence (Q16552 24-155)

SMILES	IC50 (IL-17A/F) [µM]	IC50 (IL-17A/A) [µM]
CCn1nccc1C(=O)N[C@H](c1cn2nc(C[C@H]3C[C@@H](C(F)(F)F)CNC3=O)c(C3CCOCC3)nc2n1)[C@H]1CCCC(F)(F)C1 [Compound 66, N—((S)—((S)-3,3-difluorocyclohexyl)(2-(((3R,5R)-2-oxo-5-(trifluoromethyl)piperidin-3-yl)methyl)-3-(tetrahydro-2H-pyran-4-yl)imidazo[1,2-b][1,2,4]triazin-6-yl)methyl)-1-ethyl-11H-pyrazole-5-carboxamide]	< 0.1	< 0.1
CCn1nccc1C(=O)N[C@H](c1cn2nc(C[C@H]3C[C@@H](C(F)(F)F)CNC3=O)c(C3CCOCC3)nc2n1)[C@@H]1CCCC(F)(F)C1 [Compound 67, N—((S)—((R)-3,3-difluorocyclohexyl)(2-(((3R,5R)-2-oxo-5-(trifluoromethyl)piperidin-3-yl)methyl)-3-(tetrahydro-2H-pyran-4-yl)imidazo[1,2-b][1,2,4]triazin-6-yl)methyl)-1-ethyl-1H-pyrazole-5-carboxamide]	< 0.1	< 0.1
CCn1nccc1C(=O)N[C@H](c1cn2nc(C[C@H]3C[C@@H](C(F)(F)F)CNC3=O)c(C3CCOCC3)nc2n1)[C@H]1CC[C@H](C)CC1 [Compound 78, 1-ethyl-N-((1S)-((1r,4S)-4-methylcyclohexyl)(2-(((3R,5R)-2-oxo-5-(trifluoromethyl)piperidin-3-yl)methyl)-3-(tetrahydro-2H-pyran-4-yl)imidazo[1,2-b][1,2,4]triazin-6-yl)methyl)-1H-pyrazole-5-carboxamide]	< 0.1	< 0.1
CCn1nccc1C(=O)N[C@H](c1cn2nc(C[C@H]3C[C@@H](C(F)(F)F)CNC3=O)c(C(C)C)nc2n1)C1CCC(F)(F)CC1 [Compound 87, N-((1S)-(4,4-difluorocyclohexyl)(3-isopropyl-2-(((3R,5R)-2-oxo-5-(trifluoromethyl)piperidin-3-yl)methyl)imidazo[1,2-b][1,2,4]triazin-6-yl)methyl)-1-ethyl-1H-pyrazole-5-carboxamide]	0.1 to 1	< 0.1
CCn1nccc1C(=O)N[C@H](c1cn2nc(C[C@H]3C[C@@H](C(F)(F)F)CNC3=O)c(C(C)C)nc2n1)[C@H]1CC[C@H](C)CC1 [Compound 110, 1-ethyl-N-((1S)-(3-isopropyl-2-(((3R,5R)-2-oxo-5-(trifluoromethyl)piperidin-3-yl)methyl)imidazo[1,2-b][1,2,4]triazin-6-yl)((1r,4S)-4-methylcyclohexyl)methyl)-1H-pyrazole-5-carboxamide]	0.1 to 1	< 0.1
CCn1nccc1C(=O)N[C@H](c1cn2nc(C[C@H]3C[C@@H](C(F)(F)F)CNC3=O)c(N(C)C)nc2n1)[C@H]1CCCC(F)(F)C1 [Compound 117, N—((S)—((S)-3,3-difluorocyclohexyl)(3-(dimethylamino)-2-(((3R,5R)-2-oxo-5-(trifluoromethyl)piperidin-3-yl)methyl)imidazo[1,2-b][1,2,4]triazin-6-yl)methyl)-1-ethyl-1H-pyrazole-5-carboxamide]	0.1 to 1	< 0.1
CCn1nccc1C(=O)N[C@H](c1cn2nc(C[C@H]3C[C@@H](C(F)(F)F)CNC3=O)c(N(C)C)nc2n1)[C@@H]1CCCC(F)(F)C1 [Compound 119, N—((S)—((R)-3,3-difluorocyclohexyl)(3-(dimethylamino)-2-(((3R,5R)-2-oxo-5-(trifluoromethyl)piperidin-3-yl)methyl)imidazo[1,2-b][1,2,4]triazin-6-yl)methyl)-1-ethyl-1H-pyrazole-5-carboxamide]	0.1 to 1	< 0.1
CCn1nccc1C(=O)N[C@H](c1cn2nc(C[C@H]3C[C@@H](C(F)(F)F)CNC3=O)c(N3CCO[C@H](C)C3)nc2n1)[C@H]1CCCC(F)(F)C1 [Compound 121, N—((S)—((S)-3,3-difluorocyclohexyl)(3-((R)-2-methylmorpholino)-2-(((3R,5R)-2-oxo-5-(trifluoromethyl)piperidin-3-yl)methyl)imidazo[1,2-b][1,2,4]triazin-6-yl)methyl)-1-ethyl-1H-pyrazole-5-carboxamide]	< 0.1	< 0.1
CCn1nccc1C(=O)N[C@H](c1cn2nc(C[C@H]3C[C@@H](C(F)(F)F)CNC3=O)c(N3CCO[C@@H](C)C3)nc2n1)[C@H]1CCCC(F)(F)C1 [Compound 123, N—((S)—((S)-3,3-difluorocyclohexyl)(3-((S)-2-methylmorpholino)-2-(((3R,5R)-2-oxo-5-(trifluoromethyl)piperidin-3-yl)methyl)imidazo[1,2-b][1,2,4]triazin-6-yl)methyl)-1-ethyl-1H-pyrazole-5-carboxamide]	0.1 to 1	< 0.1
CC(C)n1nccc1C(=O)N[C@H](c1cn2nc(C[C@H]3C[C@@H](C(F)(F)F)CNC3=O)c(C3CCOCC3)nc2n1)[C@@H]1CCCC(F)(F)C1 [Compound 127, N-((1S)—((R)-3,3-difluorocyclohexyl)(2-(((3R,5R)-2-oxo-5-(trifluoromethyl)piperidin-3-yl)methyl)-3-(tetrahydro-2H-pyran-4-yl)imidazo[1,2-b][1,2,4]triazin-6-yl)methyl)-1-isopropyl-1H-pyrazole-5-carboxamide]	0.1 to 1	< 0.1
O=C(N[C@H](c1cn2nc(C[C@H]3C[C@@H](C(F)(F)F)CNC3=O)c(C3CCOCC3)nc2n1)C1CCC(F)(F)CC1)c1nonc1C1CC1 [Compound 136, 4-cyclopropyl-N-((1S)-(4,4-difluorocyclohexyl)(2-(((3R,5R)-2-oxo-5-(trifluoromethyl)piperidin-3-yl)methyl)-3-(tetrahydro-2H-pyran-4-yl)imidazo[1,2-b][1,2,4]triazin-6-yl)methyl)-1,2,5-oxadiazole-3-carboxamide]	> 1	< 0.1
CCn1nccc1C(=O)N[C@H](c1cn2nc(C[C@H]3C[C@@H](C(F)(F)F)CNC3=O)c(C3CCOCC3)nc2n1)C(C1CC1)C1CC1 [Compound 137, N-((1S)-2,2-dicyclopropyl-1-(2-(((3R,5R)-2-oxo-5-(trifluoromethyl)piperidin-3-yl)methyl)-3-(tetrahydro-2H-pyran-4-yl)imidazo[1,2-b][1,2,4]triazin-6-yl)ethyl)-1-ethyl-1H-pyrazole-5-carboxamide]	0.1 to 1	< 0.1
CCn1nccc1C(=O)N[C@H](c1cn2nc(C[C@H]3C[C@H](C(F)(F)F)CNC3=O)c(C3CCOCC3)nc2n1)C1CCC(F)(F)CC1 [Compound 140, N-((1S)-(4,4-difluorocyclohexyl)(2-(((3R,5S)-2-oxo-5-(trifluoromethyl)piperidin-3-yl)methyl)-3-(tetrahydro-2H-pyran-4-yl)imidazo[1,2-b][1,2,4]triazin-6-yl)methyl)-1-ethyl-1H-pyrazole-5-carboxamide]	0.1 to 1	< 0.1
CCn1nccc1C(=O)N[C@H](c1cn2nc(C[C@H]3C[C@@H](C(F)(F)F)CNC3=O)c(CC3CCOCC3)nc2n1)C1CCC(F)(F)CC1 [Compound 141, N-((1S)-(4,4-difluorocyclohexyl)(2-(((3R,5R)-2-oxo-5-(trifluoromethyl)piperidin-3-yl)methyl)-3-((tetrahydro-2H-pyran-4-yl)methyl)imidazo[1,2-b][1,2,4]triazin-6-yl)methyl)-1-ethyl-1H-pyrazole-5-carboxamide]	< 0.1	< 0.1
CCn1nccc1C(=O)N[C@H](c1cn2nc(C[C@H]3C[C@@H](C(F)(F)F)CNC3=O)c(CN3CCOCC3)nc2n1)C1CCC(F)(F)CC1 [Compound 142, N—((S)-(4,4-difluorocyclohexyl)(3-(morpholinomethyl)-2-(((3R,5R)-2-oxo-5-(trifluoromethyl)piperidin-3-yl)methyl)imidazo[1,2-b][1,2,4]triazin-6-yl)methyl)-1-ethyl-1H-pyrazole-5-carboxamide]	> 1	< 0.1
CCn1nccc1C(=O)N[C@H](c1cn2nc(C[C@H]3C[C@@H](C(F)(F)F)CNC3=O)c(N(C)C3CC3)nc2n1)C1CCC(F)(F)CC1 [Compound 143, N—((S)-(3-(cyclopropyl(methyl)amino)-2-(((3R,5R)-2-oxo-5-(trifluoromethyl)piperidin-3-yl)methyl)imidazo[1,2-b][1,2,4]triazin-6-yl)(4,4-difluorocyclohexyl)methyl)-1-ethyl-1H-pyrazole-5-carboxamide]	0.1 to 1	< 0.1
CCc1nocc1C(=O)N[C@H](c1cn2nc(C[C@H]3C[C@@H](C(F)(F)F)CNC3=O)c(C3CCOCC3)nc2n1)C1CCC(F)(F)CC1 [Compound 146, N-((1S)-(4,4-difluorocyclohexyl)(2-(((3R,5R)-2-oxo-5-(trifluoromethyl)piperidin-3-yl)methyl)-3-(tetrahydro-2H-pyran-4-yl)imidazo[1,2-b][1,2,4]triazin-6-yl)methyl)-3-ethylisoxazole-4-carboxamide]	0.1 to 1	< 0.1
CC(C)n1nccc1C(=O)N[C@H](c1cn2nc(C[C@H]3C[C@@H](C(F)(F)F)CNC3=O)c(C3CCOCC3)nc2n1)C1CCC(F)(F)CC1 [Compound 147, N-((1S)-(4,4-difluorocyclohexyl)(2-(((3R,5R)-2-oxo-5-(trifluoromethyl)piperidin-3-yl)methyl)-3-(tetrahydro-2H-pyran-4-yl)imidazo[1,2-b][1,2,4]triazin-6-yl)methyl)-1-isopropyl-1H-pyrazole-5-carboxamide]	0.1 to 1	< 0.1
